Test results as given in patent US20250197376A1, “PYRAZINE AMIDE DERIVATIVES” (Novartis AG, priority 2022, published 2025).

tested on: 3D7 P. falciparum strain; experiment: P. falciparum 3D7 parasite proliferation assay (SYBR Green); format: cell-based; conditions: Plasmodium falciparum, Erythrocyte; 3D7 P. falciparum infected human erythrocytes, 72 hours, SYBR Green fluorescence; read-out: Pf3D7 Activity
Protocol: The following assay illustrates the invention without in any way limiting the scope of the invention. This parasite proliferation assay measures the increase in parasite DNA content using a DNA intercalating dye, SYBR Green®. 3D7 P. falciparum strain is grown in complete culturing media until parasitemia reaches 3% to 8% with O+ human erythrocytes. 20 μl of screening media is dispensed into 384 well assay plates. 50 nl of compounds of the invention (in DMSO), including antimalarial controls (mefloquine, pyrimethamine and artemisinin), are then transferred into the assay plates, as well as DMSO alone to serve as a negative control for inhibition. Then 30 μl of a suspension of a 3D7 P. falciparum infected erythrocytes in screening media is dispensed into the assay plates such that the final hematocrit is 2.5% with a final parasitemia of 0.3%. The plates are placed in a 37° C. incubator for 72 hours in a low oxygen environment containing 93% N2, 4% CO2, and 3% O2 gas mixture. 10 μl of lysis buffer (saponin, triton-X, EDTA) containing a 10× solution of SYBR Green […] in RPMI media is dispensed into the plates. The plates are lidded and kept at room temperature overnight for the lysis of the infected red blood cells. The fluorescence intensity is measured (excitation […], emission 530 nm) using the Envision™ system (Perkin Elmer). The percentage inhibition of 50%, EC50, is calculated for each compound.

Row | SMILES | EC50 [nM]
1 | CCOC(=O)c1cc2[nH]c(-c3cncc(C(=O)NCC(C)(C)N)n3)c(C)c2s1 [Example 72, Ethyl 5-(6-((2-amino-2-methylpropyl)carbamoyl)pyrazin-2-yl)-6-methyl-4H-thieno[3,2-b]pyrrole-2-carboxylate] | < 10
2 | CC(C)(N)CNC(=O)c1cncc(-c2[nH]c3ccccc3c2C(F)(F)F)n1 [Example 54, N-(2-amino-2-methylpropyl)-6-(3-(trifluoromethyl)-1H-indol-2-yl)pyrazine-2-carboxamide] | > 100
3 | Cc1c(-c2cncc(C(=O)NCC(C)(C)N)n2)[nH]c2ccc(S(C)(=O)=O)cc12 [Example 75, N-(2-Amino-2-methylpropyl)-6-(3-methyl-5-(methylsulfonyl)-1H-indol-2-yl)pyrazine-2-carboxamide] | > 100
4 | CC(C)(N)CNC(=O)c1cncc(-c2cc3ccccc3[nH]2)n1 [Example 35, N-(2-amino-2-methylpropyl)-6-(1H-indol-2-yl)pyrazine-2-carboxamide] | > 100
5 | Cc1ccc2[nH]c(-c3cncc(C(=O)NCC(C)(C)N)n3)c(C)c2c1 [Example 15, N-(2-amino-2-methylpropyl)-6-(3,5-dimethyl-1H-indol-2-yl)pyrazine-2-carboxamide] | 10 to 100
6 | CC(C)c1c(-c2cncc(C(=O)NCC(C)(C)N)n2)[nH]c2ccccc12 [Example 52, N-(2-amino-2-methylpropyl)-6-(3-isopropyl-1H-indol-2-yl)pyrazine-2-carboxamide] | 10 to 100
7 | CC(C)(N)CNC(=O)c1cncc(-c2cc3ccc(OC(F)(F)F)cc3[nH]2)n1 [Example 47, N-(2-amino-2-methylpropyl)-6-(6-(trifluoromethoxy)-1H-indol-2-yl)pyrazine-2-carboxamide] | 10 to 100
8 | CC(C)(N)CNC(=O)c1cncc(-c2cc3cc(OC(F)(F)F)ccc3[nH]2)n1 [Example 2, N-(2-Amino-2-methylpropyl)-6-(5-(trifluoromethoxy)-1H-indol-2-yl)pyrazine-2-carboxamide] | 10 to 100
9 | CC(C)(N)CNC(=O)c1cncc(-c2cc3cc(Cl)nc(Cl)c3[nH]2)n1 [Example 38, N-(2-amino-2-methylpropyl)-6-(5,7-dichloro-1H-pyrrolo[2,3-c]pyridin-2-yl)pyrazine-2-carboxamide] | > 100
10 | Cc1c(-c2cncc(C(=O)NCCC(C)(C)N)n2)[nH]c2ccc(OC(F)(F)F)cc12 [Example 59, N-(3-amino-3-methylbutyl)-6-(3-methyl-5-(trifluoromethoxy)-1H-indol-2-yl)pyrazine-2-carboxamide] | < 10
11 | Cc1c(-c2cncc(C(=O)NCC(C)(C)N)n2)[nH]c2c1CCC(C)(C)C2 [Example 76, N-(2-Amino-2-methylpropyl)-6-(3,6,6-trimethyl-4,5,6,7-tetrahydro-1H-indol-2-yl)pyrazine-2-carboxamide] | 10 to 100
12 | Cc1c(-c2cncc(C(=O)NCCC(C)(C)N)n2)[nH]c2ccccc12 [Example 85, N-(3-amino-3-methylbutyl)-6-(3-methyl-1H-indol-2-yl)pyrazine-2-carboxamide] | 10 to 100
13 | CC(C)(N)CNC(=O)c1cncc(-c2cc3cc(S(F)(F)(F)(F)F)ccc3[nH]2)n1 [Example 46, N-(2-amino-2-methylpropyl)-6-(5-(pentafluoro-λ^6-sulfaneyl)-1H-indol-2-yl)pyrazine-2-carboxamide] | 10 to 100
14 | Cc1c(-c2cncc(C(=O)NCC(C)(C)N)n2)[nH]c2cc(Cl)ccc12 [Example 7, N-(2-amino-2-methylpropyl)-6-(6-chloro-3-methyl-1H-indol-2-yl)pyrazine-2-carboxamide] | < 10
15 | COc1cccc2cc(-c3cncc(C(=O)NCC(C)(C)N)n3)[nH]c12 [Example 44, N-(2-amino-2-methylpropyl)-6-(7-methoxy-1H-indol-2-yl)pyrazine-2-carboxamide] | > 100
16 | Cc1c(-c2cncc(C(=O)NCC(C)(C)N)n2)[nH]c2c1CCCC2 [Example 51, N-(2-amino-2-methylpropyl)-6-(3-methyl-4,5,6,7-tetrahydro-1H-indol-2-yl)pyrazine-2-carboxamide] | 10 to 100
17 | Cc1c(-c2cncc(C(=O)NCC3(N)CCC3)n2)[nH]c2ccc(OC(F)(F)F)cc12 [Example 58, N-((1-aminocyclobutyl)methyl)-6-(3-methyl-5-(trifluoromethoxy)-1H-indol-2-yl)pyrazine-2-carboxamide] | < 10
18 | Cc1c(-c2cncc(C(=O)NCC3(N)CCC3)n2)[nH]c2ccccc12 [Example 84, N-((1-aminocyclobutyl)methyl)-6-(3-methyl-1H-indol-2-yl)pyrazine-2-carboxamide] | 10 to 100
19 | Cc1c(-c2cncc(C(=O)N[C@H]3COC[C@H]3N)n2)[nH]c2ccccc12 (racemic) [Example 99, (rac)-N-((3r,4s)-4-aminotetrahydrofuran-3-yl)-6-(3-methyl-1H-indol-2-yl)pyrazine-2-carboxamide] | > 100

Row | SMILES | EC50 [nM]
20 | CC(C)(N)CNC(=O)c1cncc(-c2cc3ccc(C#N)cc3[nH]2)n1 [Example 34, N-(2-amino-2-methylpropyl)-6-(6-cyano-1H-indol-2-yl)pyrazine-2-carboxamide] | > 100
21 | COc1ccc2cc(-c3cncc(C(=O)NCC(C)(C)N)n3)[nH]c2c1 [Example 31, N-(2-amino-2-methylpropyl)-6-(6-methoxy-1H-indol-2-yl)pyrazine-2-carboxamide] | > 100
22 | Cc1c(-c2cncc(C(=O)N[C@H]3CCC[C@@H]3N)n2)[nH]c2cc(Cl)c(F)cc12 [Example 77, N-((1S,2S)-2-Aminocyclopentyl)-6-(6-chloro-5-fluoro-3-methyl-1H-indol-2-yl)pyrazine-2-carboxamide] | < 10
23 | CC(C)(N)CNC(=O)c1cncc(-c2cc3cc(F)c(O)cc3[nH]2)n1 [Example 110, N-(2-amino-2-methylpropyl)-6-(5-fluoro-6-hydroxy-1H-indol-2-yl)pyrazine-2-carboxamide] | > 100
24 | Cc1c(-c2cncc(C(=O)NCC(N)C3CC3)n2)[nH]c2ccccc12 (stereo not shown) [Example 102] | 10 to 100
25 | CC(C)(N)CNC(=O)c1cncc(-c2[nH]c3ccccc3c2C#N)n1 [Example 57, N-(2-amino-2-methylpropyl)-6-(3-cyano-1H-indol-2-yl)pyrazine-2-carboxamide] | > 100
26 | Cc1c(-c2cncc(C(=O)NCC(N)C3CC3)n2)[nH]c2cc(Cl)c(F)cc12 (stereo not shown) [Example 79, N-(2-amino-2-cyclopropylethyl)-6-(6-chloro-5-fluoro-3-methyl-1H-indol-2-yl)pyrazine-2-carboxamide] | 10 to 100
27 | Cc1c(-c2cncc(C(=O)N(C)CC(C)(C)N)n2)[nH]c2ccc(OC(F)(F)F)cc12 [Example 62, N-(2-amino-2-methylpropyl)-N-methyl-6-(3-methyl-5-(trifluoromethoxy)-1H-indol-2-yl)pyrazine-2-carboxamide] | 10 to 100
28 | CC(C)(N)CNC(=O)c1cncc(-c2cc3ccncc3[nH]2)n1 [Example 43, N-(2-amino-2-methylpropyl)-6-(1H-pyrrolo[2,3-c]pyridin-2-yl)pyrazine-2-carboxamide] | > 100
29 | Cc1c(-c2cncc(C(=O)NCC(C)(C)N)n2)[nH]c2c(F)cc(Cl)cc12 [Example 6, N-(2-amino-2-methylpropyl)-6-(5-chloro-7-fluoro-3-methyl-1H-indol-2-yl)pyrazine-2-carboxamide] | < 10
30 | CC(C)(N)CNC(=O)c1cncc(-c2[nH]c3ccc(OC(F)(F)F)cc3c2Cl)n1 [Example 106, N-(2-Amino-2-methylpropyl)-6-(3-chloro-5-(trifluoromethoxy)-1H-indol-2-yl)pyrazine-2-carboxamide] | < 10
31 | Cc1ccc2cc(-c3cncc(C(=O)NCC(C)(C)N)n3)[nH]c2c1 [Example 23, N-(2-amino-2-methylpropyl)-6-(6-methyl-1H-indol-2-yl)pyrazine-2-carboxamide] | 10 to 100
32 | COc1cccc2[nH]c(-c3cncc(C(=O)NCC(C)(C)N)n3)cc12 [Example 30, N-(2-amino-2-methylpropyl)-6-(4-methoxy-1H-indol-2-yl)pyrazine-2-carboxamide] | > 100
33 | CC(C)(N)CNC(=O)c1cncc(-c2cc3sc(C(N)=O)cc3[nH]2)n1 [Example 108, 5-(6-((2-amino-2-methylpropyl)carbamoyl)pyrazin-2-yl)-4H-thieno[3,2-b]pyrrole-2-carboxamide] | > 100
34 | CCc1c(-c2cncc(C(=O)NCC(C)(C)N)n2)[nH]c2ccccc12 [Example 50, N-(2-amino-2-methylpropyl)-6-(3-ethyl-1H-indol-2-yl)pyrazine-2-carboxamide] | 10 to 100
35 | Cc1c(-c2cncc(C(=O)N[C@@H]3CCCC[C@H]3N)n2)[nH]c2ccccc12 (racemic) [Example 101, (rac)-N-((1r,2r)-2-aminocyclohexyl)-6-(3-methyl-1H-indol-2-yl)pyrazine-2-carboxamide] | > 100
36 | CC(C)c1c(-c2cncc(C(=O)NCC(C)(C)N)n2)[nH]c2ccc(OC(F)(F)F)cc12 [Example 16, N-(2-amino-2-methylpropyl)-6-(3-isopropyl-5-(trifluoromethoxy)-1H-indol-2-yl)pyrazine-2-carboxamide] | 10 to 100
37 | CC(C)(N)CNC(=O)c1cncc(-c2cc3cc(C#N)ccc3[nH]2)n1 [Example 104] | > 100
